Values quoted from earlier work, collected in patent US10351563B2, “Biaryl kinase inhibitors” (BRISTOL-MYERS SQUIBB COMPANY, priority 2014, dated 2019).

Assays:
[1] = molecular target: AAK1 (Homo sapiens (Human), UniProt Q2M2I8)
[2] = tested on: PC12 cells
[3] = tested on: HCV; details: Huh-7.5 cells

Sequence of AAK1 (Q2M2I8 whole entry, species assumed): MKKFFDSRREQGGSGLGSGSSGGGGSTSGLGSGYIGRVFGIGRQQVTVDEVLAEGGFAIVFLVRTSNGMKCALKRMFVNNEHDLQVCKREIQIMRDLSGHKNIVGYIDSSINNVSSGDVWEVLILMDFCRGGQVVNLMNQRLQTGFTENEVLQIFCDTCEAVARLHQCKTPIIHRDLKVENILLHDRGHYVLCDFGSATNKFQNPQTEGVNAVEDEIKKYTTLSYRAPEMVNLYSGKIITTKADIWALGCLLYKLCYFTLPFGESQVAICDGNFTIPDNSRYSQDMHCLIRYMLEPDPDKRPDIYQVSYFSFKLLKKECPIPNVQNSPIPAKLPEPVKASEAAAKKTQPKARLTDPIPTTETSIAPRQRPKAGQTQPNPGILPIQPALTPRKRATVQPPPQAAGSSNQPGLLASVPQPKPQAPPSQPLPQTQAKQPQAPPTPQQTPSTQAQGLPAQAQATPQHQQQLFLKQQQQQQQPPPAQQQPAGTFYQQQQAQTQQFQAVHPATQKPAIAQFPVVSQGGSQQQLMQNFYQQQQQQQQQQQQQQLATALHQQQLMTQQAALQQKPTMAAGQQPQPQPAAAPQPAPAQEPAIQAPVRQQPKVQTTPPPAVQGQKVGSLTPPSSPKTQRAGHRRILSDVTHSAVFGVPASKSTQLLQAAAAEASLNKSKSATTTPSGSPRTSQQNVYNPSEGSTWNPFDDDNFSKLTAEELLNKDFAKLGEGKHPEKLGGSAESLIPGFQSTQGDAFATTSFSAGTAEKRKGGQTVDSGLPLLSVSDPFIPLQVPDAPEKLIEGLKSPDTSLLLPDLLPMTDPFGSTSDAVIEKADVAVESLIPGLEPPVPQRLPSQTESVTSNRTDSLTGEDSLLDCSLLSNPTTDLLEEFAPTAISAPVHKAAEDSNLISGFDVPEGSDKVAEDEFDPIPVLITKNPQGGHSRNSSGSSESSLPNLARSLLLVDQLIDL

Row | SMILES | AAK1 kinase activity inhibition [1] | Neuregulin-1 induced neurite outgrowth [2] | HCV entry [3] | HCV virion assembly [3]
1 | COC(=O)[C@@]1(O)C[C@H]2O[C@]1(C)n1c3ccccc3c3c4c(c5c6ccccc6n2c5c31)C(=O)NC4 [Example K252a, K252a] | inhibits AAK1 kinase activity | potentiation of Neuregulin-1 induced neurite outgrowth | – | –
2 | CCN(CC)CCNC(=O)c1c(C)[nH]c(/C=C2\C(=O)Nc3ccc(F)cc32)c1C [sunitinib] | potent AAK1 inhibitor | – | inhibit HCV entry | reduced HCV virion assembly
